Assay results as given in US10041937B2, “Macrophage identification agent, and identification method, sorting method, evaluation method, screening method and kit using the macrophage identifier agent” (CANON KABUSHIKI KAISHA, priority 2013, dated 2018).

System: M1 macrophages and M2 macrophages differentiated from mouse bone marrow cells
Assay: Subtype identification by staining and flow cytometry of M1 and M2 macrophages differentiated from mouse bone marrow cells
Format: cell-based, Balb/c mouse
Settings: M1 vs M2 macrophages from mouse bone marrow cells; general formula (10) dyes (Table 8)
Description: The culture of subtypes was performed according to a protocol described in NPL 7. Specifically, bone marrow cells collected from the femur of a Balb/c mouse of 8 to 10 weeks old were dispersed to a concentration of 1×10^6/mL in an IMDM containing 20% FBS and 1% P/S, and 1×10^7 cells were seeded in a 100 mm dish. After further adding an M-CSF (manufactured by Pepro Tech) thereto to a concentration of 50 ng/mL, the cells were incubated for 3 to 4 days in the presence of 5% CO2 at 37° C., so as to differentiate macrophage precursor cells to macrophages. After exchanging the medium, the M-CSF was added to a concentration of 50 ng/mL, and the incubation was performed for further 3 to 4 days in the presence of 5% CO2 at 37° C., and then, the resulting cells were differentiated to macrophage. By adding 200 ng of interferon-γ and 1 μg of […] (both manufactured by Pepro Tech) to the IMDM containing 5% FBS and 1% P/S, the cells were differentiated to the subtype M1. Besides, by adding 100 ng of IL-4 to the IMDM containing 5% FBS and 1% P/S, the cells were differentiated to the subtype M2. After performing the incubation for further 3 days in the presence of 5% CO2 at 37° C., the resultant was rinsed with PBS, and PBS containing 0.25% trypsin and 1 mM EDTA (ethylenediaminetetraacetic acid) was used for collecting, from the dish, the macrophages having been differentiated to the subtypes M1 and M2.
Thereafter, the tube was centrifuged at 180 G for 10 minutes to remove the supernatant, a dye for identifying dead cells (aqua fluorescent reactive dye, manufactured by Invitrogen; which is hereinafter sometimes abbreviated as aqua) was added thereto, and the resultant was incubated at 4° C. for 10 minutes. Subsequently, the tube was centrifuged at 180 G for 10 minutes to remove the supernatant, cells were suspended in a FACS buffer to be analyzed by using FACSCanto (trademark) II flow cytometry apparatus manufactured by BD.
The analysis was performed on a cell population showing a low signal for the aqua, so as to analyze a cell population from which dead cells were eliminated. […] A histogram was prepared by plotting fluorescence intensity obtained in the FITC channel on the abscissa and plotting the number of cells at each fluorescence intensity on the ordinate, which is shown in FIG. 2.
Histograms were prepared by plotting fluorescence intensities obtained in the respective channels on the abscissa and plotting the numbers of cells at each fluorescence intensity on the ordinate. A difference between a fluorescence intensity (FM1) at a peak top of the histogram of the M1 macrophage and a fluorescence intensity (FM2) at a peak top of the histogram of the M2 macrophage is divided by a sum of a peak width (WM1) of the histogram of the M1 macrophage and a peak width (WM2) of the histogram of the M2 macrophage, so as to obtain a resolution R, which was used as an index of the identification ability for a subtype (see the following expression (1)). Resolution R=|FM1−FM2|/(WM1+WM2) Expression (1)

**Q.** Which “Resolution ratio R” value does the source give for `CCN(CC)c1ccc2cc(-c3nc4ccccc4[nH]3)c(=O)oc2c1` [(131)] here?
**A.** 0.480

**Q.** With `CCN(CC)c1ccc2cc(-c3nc4ccc(OC)cc4o3)c(=O)oc2c1` [(132)] as the compound, how does the “Resolution ratio R” value read?
**A.** 0.624

**Q.** With `CC1(C)CCN2CCC(C)(C)c3c2c1cc1cc(-c2nc4ccccc4s2)c(=O)oc31` [(138)] as the compound, how does the “Resolution ratio R” value read?
**A.** 0.312

**Q.** For `CCN(CC)c1ccc2cc(C(=O)c3cc4ccc(N(CC)CC)cc4oc3=O)c(=O)oc2c1` [comparative compound (4), reference compound], which “Resolution ratio R” value is on record?
**A.** 0.053

Same assay, conditions: M1 vs M2 macrophages from mouse bone marrow cells; general formula (11) dyes (Table 9)

**Q.** For `CC1=CC(C)=[N+]2C1=C(c1ccccc1)c1c(C)cc(C)n1[B-]2(F)F` [(148)], which “Resolution ratio R” value is on record?
**A.** 0.193

**Q.** With `Cc1cc(C)n2c1C=C1C=CC(CCC(=O)O)=[N+]1[B-]2(F)F` [(157)] as the compound, how does the “Resolution ratio R” value read?
**A.** 0.637

**Q.** For `CC1=C(S(=O)(=O)O)C(C)=[N+]2C1=C(C)c1c(C)c(S(=O)(=O)O)c(C)n1[B-]2(F)F` [(165)], which “Resolution ratio R” value is on record?
**A.** 0.183

**Q.** How did the “Resolution ratio R” value turn out when `Cc1cc(C)n2c1C=C1C=CC(CCC(=O)NN)=[N+]1[B-]2(F)F` [(166)] was run?
**A.** 0.722

**Q.** How did the “Resolution ratio R” value turn out when `Cc1cc(C)n2c1C=C1C=CC(CCC(=O)c3c(F)c(F)c(S(=O)(=O)O)c(F)c3F)=[N+]1[B-]2(F)F` [(167)] was run?
**A.** 0.525

Same assay, conditions: R=|FM1−FM2|/(WM1+WM2); compound 1 μM

**Q.** `COc1ccc(N2c3ccc(/C=C4\C(=O)N(c5ccccc5)N=C4C(=O)O)cc3C3CCCC32)cc1` (stereo not shown) [compound (33)] was tested. Which “Resolution ratio R” value did it give?
**A.** 0.522

Same assay, conditions: class based on resolution R; general formula (10) dyes (Table 8)

**Q.** Which “Evaluation of macrophage subtype identification” value (“Evaluation” below) does the source give for `CCN(CC)c1ccc2cc(-c3nc4ccccc4[nH]3)c(=O)oc2c1` [(131)] here?
**A.** B (the compound is good in the subtype identification (namely, the resolution R is 0.15 or more and less than 0.5))

**Q.** `CCN(CC)c1ccc2cc(-c3nc4ccc(OC)cc4o3)c(=O)oc2c1` [(132)] was tested. Which “Evaluation” value did it give?
**A.** A (The compound is very good in the subtype identification (namely, the resolution R is 0.5 or more))

**Q.** Which “Evaluation” value does the source give for `CC1(C)CCN2CCC(C)(C)c3c2c1cc1cc(-c2nc4ccccc4s2)c(=O)oc31` [(138)] here?
**A.** B (the compound is good in the subtype identification (namely, the resolution R is 0.15 or more and less than 0.5))

**Q.** `CCN(CC)c1ccc2cc(C(=O)c3cc4ccc(N(CC)CC)cc4oc3=O)c(=O)oc2c1` [comparative compound (4), reference compound] was tested. Which “Evaluation” value did it give?
**A.** C (the compound cannot identify the subtypes (namely, the resolution R is less than 0.15))

Same assay, conditions: class based on resolution R; general formula (11) dyes (Table 9)

**Q.** Which “Evaluation” value does the source give for `CC1=CC(C)=[N+]2C1=C(c1ccccc1)c1c(C)cc(C)n1[B-]2(F)F` [(148)] here?
**A.** B (the compound is good in the subtype identification (namely, the resolution R is 0.15 or more and less than 0.5))

**Q.** For `Cc1cc(C)n2c1C=C1C=CC(CCC(=O)O)=[N+]1[B-]2(F)F` [(157)], which “Evaluation” value is on record?
**A.** A (The compound is very good in the subtype identification (namely, the resolution R is 0.5 or more))

**Q.** `CC1=C(S(=O)(=O)O)C(C)=[N+]2C1=C(C)c1c(C)c(S(=O)(=O)O)c(C)n1[B-]2(F)F` [(165)] was tested. Which “Evaluation” value did it give?
**A.** B (the compound is good in the subtype identification (namely, the resolution R is 0.15 or more and less than 0.5))

**Q.** With `Cc1cc(C)n2c1C=C1C=CC(CCC(=O)NN)=[N+]1[B-]2(F)F` [(166)] as the compound, how does the “Evaluation” value read?
**A.** A (The compound is very good in the subtype identification (namely, the resolution R is 0.5 or more))

**Q.** `Cc1cc(C)n2c1C=C1C=CC(CCC(=O)c3c(F)c(F)c(S(=O)(=O)O)c(F)c3F)=[N+]1[B-]2(F)F` [(167)] was tested. Which “Evaluation” value did it give?
**A.** A (The compound is very good in the subtype identification (namely, the resolution R is 0.5 or more))

Same assay, conditions: fluorescence intensity at peak top of histogram; compound 1 μM, 37° C., 30 minutes

**Q.** With `COc1ccc(N2c3ccc(/C=C4\C(=O)N(c5ccccc5)N=C4C(=O)O)cc3C3CCCC32)cc1` (stereo not shown) [compound (33)] as the compound, how does the “Peak position of M1 macrophage” value read?
**A.** 5.00

**Q.** And the “Peak position of M2 macrophage” value?
**A.** 9.05

Same assay, conditions: mouse bone marrow derived

**Q.** How did the “difference in the staining intensity between the M1 macrophages and the M2 macrophages / identification” value turn out when `CCN(CC)c1ccc2cc(C(=O)c3cc4ccc(N(CC)CC)cc4oc3=O)c(=O)oc2c1` [comparative compound (4), reference compound] was run?
**A.** no difference in the staining intensity

Same assay, conditions: mouse bone marrow-derived M1 macrophages; channel listed per compound; general formula (10) dyes (Table 8)

**Q.** For `CCN(CC)c1ccc2cc(-c3nc4ccccc4[nH]3)c(=O)oc2c1` [(131)], which “Peak position of M1 macrophage” value is on record?
**A.** 8.06

**Q.** How did the “Peak position of M1 macrophage” value turn out when `CCN(CC)c1ccc2cc(-c3nc4ccc(OC)cc4o3)c(=O)oc2c1` [(132)] was run?
**A.** 30.3

**Q.** `CC1(C)CCN2CCC(C)(C)c3c2c1cc1cc(-c2nc4ccccc4s2)c(=O)oc31` [(138)] was tested. Which “Peak position of M1 macrophage” value did it give?
**A.** 20.6

**Q.** With `CCN(CC)c1ccc2cc(C(=O)c3cc4ccc(N(CC)CC)cc4oc3=O)c(=O)oc2c1` [comparative compound (4), reference compound] as the compound, how does the “Peak position of M1 macrophage” value read?
**A.** 0.88

Same assay, conditions: mouse bone marrow-derived M1 macrophages; channel listed per compound; general formula (11) dyes (Table 9)

**Q.** For `CC1=CC(C)=[N+]2C1=C(c1ccccc1)c1c(C)cc(C)n1[B-]2(F)F` [(148)], which “Peak position of M1 macrophage” value is on record?
**A.** 109

**Q.** Which “Peak position of M1 macrophage” value does the source give for `Cc1cc(C)n2c1C=C1C=CC(CCC(=O)O)=[N+]1[B-]2(F)F` [(157)] here?
**A.** 2.57

**Q.** `CC1=C(S(=O)(=O)O)C(C)=[N+]2C1=C(C)c1c(C)c(S(=O)(=O)O)c(C)n1[B-]2(F)F` [(165)] was tested. Which “Peak position of M1 macrophage” value did it give?
**A.** 1.25

**Q.** How did the “Peak position of M1 macrophage” value turn out when `Cc1cc(C)n2c1C=C1C=CC(CCC(=O)NN)=[N+]1[B-]2(F)F` [(166)] was run?
**A.** 127

**Q.** For `Cc1cc(C)n2c1C=C1C=CC(CCC(=O)c3c(F)c(F)c(S(=O)(=O)O)c(F)c3F)=[N+]1[B-]2(F)F` [(167)], which “Peak position of M1 macrophage” value is on record?
**A.** 14.5

Same assay, conditions: mouse bone marrow-derived M2 macrophages; channel listed per compound; general formula (10) dyes (Table 8)

**Q.** Which “Peak position of M2 macrophage” value does the source give for `CCN(CC)c1ccc2cc(-c3nc4ccccc4[nH]3)c(=O)oc2c1` [(131)] here?
**A.** 13.5

**Q.** `CCN(CC)c1ccc2cc(-c3nc4ccc(OC)cc4o3)c(=O)oc2c1` [(132)] was tested. Which “Peak position of M2 macrophage” value did it give?
**A.** 53.8

**Q.** Which “Peak position of M2 macrophage” value does the source give for `CC1(C)CCN2CCC(C)(C)c3c2c1cc1cc(-c2nc4ccccc4s2)c(=O)oc31` [(138)] here?
**A.** 28.0

**Q.** With `CCN(CC)c1ccc2cc(C(=O)c3cc4ccc(N(CC)CC)cc4oc3=O)c(=O)oc2c1` [comparative compound (4), reference compound] as the compound, how does the “Peak position of M2 macrophage” value read?
**A.** 1.05

Same assay, conditions: mouse bone marrow-derived M2 macrophages; channel listed per compound; general formula (11) dyes (Table 9)

**Q.** `CC1=CC(C)=[N+]2C1=C(c1ccccc1)c1c(C)cc(C)n1[B-]2(F)F` [(148)] was tested. Which “Peak position of M2 macrophage” value did it give?
**A.** 151

**Q.** For `Cc1cc(C)n2c1C=C1C=CC(CCC(=O)O)=[N+]1[B-]2(F)F` [(157)], which “Peak position of M2 macrophage” value is on record?
**A.** 5.62

**Q.** For `CC1=C(S(=O)(=O)O)C(C)=[N+]2C1=C(C)c1c(C)c(S(=O)(=O)O)c(C)n1[B-]2(F)F` [(165)], which “Peak position of M2 macrophage” value is on record?
**A.** 2.00

**Q.** For `Cc1cc(C)n2c1C=C1C=CC(CCC(=O)NN)=[N+]1[B-]2(F)F` [(166)], which “Peak position of M2 macrophage” value is on record?
**A.** 56.3

**Q.** Which “Peak position of M2 macrophage” value does the source give for `Cc1cc(C)n2c1C=C1C=CC(CCC(=O)c3c(F)c(F)c(S(=O)(=O)O)c(F)c3F)=[N+]1[B-]2(F)F` [(167)] here?
**A.** 7.82

Same assay, conditions: rated from resolution R

**Q.** `COc1ccc(N2c3ccc(/C=C4\C(=O)N(c5ccccc5)N=C4C(=O)O)cc3C3CCCC32)cc1` (stereo not shown) [compound (33)] was tested. Which “Evaluation” value did it give?
**A.** A (The compound is very good in the subtype identification (namely, the resolution R is 0.5 or more))

Same assay, conditions: subtype strongly stained; general formula (10) dyes (Table 8)

**Q.** With `CCN(CC)c1ccc2cc(C(=O)c3cc4ccc(N(CC)CC)cc4oc3=O)c(=O)oc2c1` [comparative compound (4), reference compound] as the compound, how does the Selectivity read?
**A.** No

Same assay, conditions: two compounds used in combination, each 1 μM

**Q.** With `COc1ccc(N2c3ccc(/C=C4\C(=O)N(c5ccccc5)N=C4C(=O)O)cc3C3CCCC32)cc1` (stereo not shown) [compound (33)] as the compound, how does the “subtype more strongly stained” value read?
**A.** the M2 macrophages are more strongly stained than the M1 macrophages
